Assay [1] is described as follows: Binding affinity to thrombin cleavable N-terminal 6His tagged and 13C-IVLM labeled human KDM4A tandem TUDOR domain (897 to 1011 residues) expressed in Escherichia coli BL21(DE3)-T1R assessed as apparent Kd for H3(1-10)K4me3 peptide at 1 mM by ITC method (Rvb = 5.2 +/- 0.3 uM).
Assay [2] can be described thus: Binding affinity to thrombin cleavable N-terminal 6His tagged and 13C-IVLM labeled human KDM4A tandem TUDOR domain (897 to 1011 residues) expressed in Escherichia coli BL21(DE3)-T1R assessed as apparent Kd for H3(1-10)K4me3 peptide at 0.5 mM by ITC method (Rvb = 5.2 +/- 0.3 uM).
A short description of assay [3]: Binding affinity to thrombin cleavable N-terminal 6His tagged and 13C-IVLM labeled human KDM4A tandem TUDOR domain (897 to 1011 residues) expressed in Escherichia coli BL21(DE3)-T1R assessed as apparent Kd for H3(1-10)K4me3 peptide at 2.5 mM by ITC method (Rvb = 5.2 +/- 0.3 uM). (In general: ITC needs no label: the signal is the heat of the interaction.)

pKd: −log10 of the molar value.

One may read the pKd as the negative decadic logarithm of the Kd, by convention in mol/L. For the compound `CN(C)C[C@H]1C2CCC(c3ccccc3)(C2)[C@H]1O` (stereo partly drawn), the negative-log Kd (pKd) in assay [1] was 4.64; in assay [2], 4.81; in assay [3], 4.26.

The values above are taken from BindingDB's records for doi:10.1016/j.bmcl.2018.04.050 (Abbvie, 2018).
